Assay results reported in patent US20250262188A1, “Methods of Increasing the Plasma Drug Exposure of Anticancer Agents” (Scandion Oncology A/S, priority 2021, published 2025).

Tests used:
[1] = target: T1, UGT1A1 (Homo sapiens, UniProt P22309); assay: In vitro UGT1A1 inhibition, recombinant human enzyme assays (Example 5); assay type: biochemical
T1 sequence (P22309 26-533): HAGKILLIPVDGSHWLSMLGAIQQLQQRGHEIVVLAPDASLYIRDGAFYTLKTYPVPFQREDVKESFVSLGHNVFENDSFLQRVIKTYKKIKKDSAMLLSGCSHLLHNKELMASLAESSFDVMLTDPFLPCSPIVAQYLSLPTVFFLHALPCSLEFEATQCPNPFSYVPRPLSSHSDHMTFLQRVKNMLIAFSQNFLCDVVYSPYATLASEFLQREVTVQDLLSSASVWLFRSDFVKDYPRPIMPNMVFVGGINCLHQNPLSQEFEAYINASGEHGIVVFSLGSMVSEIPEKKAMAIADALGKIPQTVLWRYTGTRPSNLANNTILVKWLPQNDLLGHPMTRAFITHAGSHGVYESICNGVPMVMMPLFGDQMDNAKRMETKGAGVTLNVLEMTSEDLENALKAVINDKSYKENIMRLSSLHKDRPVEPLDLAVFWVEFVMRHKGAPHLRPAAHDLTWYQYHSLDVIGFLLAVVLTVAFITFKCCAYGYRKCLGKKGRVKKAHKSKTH
Source text: The term “UGT1A1 inhibitor” as used herein refers to a molecule which is capable of binding to human uridine diphosphate (UDP)-glycuronosyl transferase (UGT1A1), particularly in humans or animals and decrease the enzymatic activity of the UGT1A1. […] Whether or not a particular molecule is an UGT1A1 inhibitor can be determined by examining the molecule's IC50 in vitro in a UGT1A1 inhibition assays known in the art.
The inhibition of UGT1A1 was investigated by recombinant human enzyme assays.

[2] = target: T2, ABCG2 (Homo sapiens, UniProt Q9UNQ0); assay: Protein analysis of ABCG2 (western blot) in colon cancer cells (Example 4); assay type: cell-based
T2 construct: endogenous in cells; host or cells: HT29 and LoVo, parental and SN38-resistant
T2 sequence (Q9UNQ0 1-655): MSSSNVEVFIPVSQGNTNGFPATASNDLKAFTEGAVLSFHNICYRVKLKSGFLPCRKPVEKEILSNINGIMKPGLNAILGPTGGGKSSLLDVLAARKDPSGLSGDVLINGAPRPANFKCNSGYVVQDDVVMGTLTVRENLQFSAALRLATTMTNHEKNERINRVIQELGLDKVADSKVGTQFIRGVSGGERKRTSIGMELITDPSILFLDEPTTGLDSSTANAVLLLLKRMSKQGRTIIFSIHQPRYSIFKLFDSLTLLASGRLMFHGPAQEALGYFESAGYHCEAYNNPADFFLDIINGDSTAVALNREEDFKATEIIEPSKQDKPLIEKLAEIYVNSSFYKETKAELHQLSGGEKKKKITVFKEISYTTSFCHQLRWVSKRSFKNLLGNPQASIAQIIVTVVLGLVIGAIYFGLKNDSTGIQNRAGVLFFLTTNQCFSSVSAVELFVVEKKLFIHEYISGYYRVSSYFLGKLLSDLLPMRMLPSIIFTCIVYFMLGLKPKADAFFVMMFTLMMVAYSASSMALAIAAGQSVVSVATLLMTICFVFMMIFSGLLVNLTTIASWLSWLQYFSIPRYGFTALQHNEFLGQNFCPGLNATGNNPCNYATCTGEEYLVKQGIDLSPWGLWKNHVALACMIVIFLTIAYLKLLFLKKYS
Source text: (§1) Pairs of parental (sensitive) and SN38-resistant human colon cancer cell lines (HT29 and LoVo) were used. ABCG2 overexpression and effects of SCO-101 on ABCG2 was investigated by western blot, qPCR, dye-flux assays, bi-directional flux assays, 3H-SN38 accumulation assays and vesicular uptake assays. The effect of SCO-101 on SN38 re-sensitization was investigated by cell viability assays (MTT/PrestoBlue) and clonogenic assays.

[3] = system: SN38-resistant human colon cancer cell lines (HT29 and LoVo); assay: Cell viability (MTT/PrestoBlue) and clonogenic assays (Example 4); assay type: cell-based; details: SN-38-resistant cells exposed to SCO-101 and SN-38
Source text: as §1

[4] = Plasma concentrations of SCO-101 and SN-38 in patients upon repeated administration of SCO-101 (Example 1); assay type: in vivo, human; details: 150 mg SCO-101 repeated every 24 hours, FIG. 1D
Experimental: On days 1, 2, 3, 4, 5 and 6 in each treatment cycle, patients received one fixed daily dose of 150 mg SCO-101 taken in the morning at least 30 minutes before ingestion of food. On day 5 to 7, patients received FOLFIRI as specified for Colorectal cancer combination regimen 2. Blood samples were taken from patients at predefined timepoints according to the study protocol. During the first cycle of treatment, blood samples for pharmacokinetic analysis of SCO-101, irinotecan, and SN-38 were taken as follows: • Day 1; (pre-SCO-101 administration, 1; 4; 5; 6; 8); only for PK analysis of SCO-101 • Day 2; […] (pre-SCO-101 administration, 1; 4; 5; 6; 8) • Day 6; […] (48 hours), • Day 9; (96 hours). Blood samples were collected in 4 mL blood-collection tubes using lithium heparin as the anti-coagulant. Blood samples were centrifuged, and the resulting plasma is withdrawn and stored at −70° C. until analysis. […] The method and system, including validation were according to industry standard. Data were analysed using commercially available software such as Win-Non-Lin (available from Certara inc.) SCO-101 and Irinotecan was administered as described in the materials and methods section. Blood samples were withdrawn and analysed as specified. […] Raw data was then plotted using win-non-lin software to obtain relevant pharmacokinetic parameters, e.g. Cmax and AUC. […]

- IC50 ([1]; read-out: IC50 towards UGT1A1): ~100 nM
- UGT1A1 inhibition (in words) ([1]; recombinant human enzyme): potent inhibitor of UGT1A1
- Effect on ABCG2 protein [2]: causes degradation of ABCG2
- SCO-101 plasma level at which levels stabilize over time ([4]; modelled from patient data): around 55 μg/mL
- half-life ([4]; human, plasma, oral, read-out: SCO-101 half-life after stopping the administration (converted)): ~24 h
Compound: O=C(Nc1cc(C(F)(F)F)cc(C(F)(F)F)c1)Nc1ccc(Br)cc1-c1nnn[nH]1 [SCO-101]
- Effect on cell viability and colony formation of the combination with SN-38 compared to either drug alone [3]: synergistic inhibitory effect
